Ends that are not written are not given here.
Columns and labels:
[1] = test system: tumor cells (K562); set-up: method as in printed at the place; details: other TREM-1 ligands, 'just as it was shown'; no ref given; cited from earlier work
[2] = test system: MHC-negative tumor cells; details: ref [24,27,42]; cited from earlier work
Excerpt: The interaction of ligands with TREM-1 on the cell membrane leads to dimerization of the receptor, followed by activation of the metalloprotease MMP-9 [37], cleavage, and dissociation of the exodomain from the cell surface. sTREM-1 is considered a biomarker of infection and viral diseases. Further activation of the receptor develops in two ways. Triggering cascades of tyrosine kinases leads to activation of the NFkß factor, expression of pro-inflammatory cytokines, and development of inflammatory processes. In turn, the release of cytokines leads to the appearance of ...

[3] = test system: TREM-1 receptor; assay: Inhibition of cytotoxicity induced by the sum of N9 and N15 peptides; assay type: cell-based, human; details: PBMC with N9 + N15, 6 days; K562
Method: (§1) The combined effect of these peptides stimulated the activation of cytotoxic lymphocytes. […] In addition, the induction of the cytotoxic effect of lymphocytes is TREM-1-dependent.
(§2) For cytotoxicity tests, cells of the K562 line were cultured in 96-well plates (Luoyang Fudau Biotech Co, Luoyang, Henan, China) (6 × 10^4 per well) before the addition of lymphocytes (1.2 × 10^6 per well) and then incubated at 37 °C in an atmosphere with 5% CO2 for 3–20 h. Cytotoxicity was measured using a Cytotox 96 analysis kit (Promega, Madison, WI, USA) after 24 h of incubation in accordance with the manufacturer’s protocol. […] Polyclonal antibodies to Tag7 were obtained from ABclonal (ABclonal, Woburn, MA, USA). Monoclonal antibodies to TREM-1 were obtained from Thermo Fisher Scientific (Thermo Fisher Scientific, Waltham, MA, USA).

[4] = test system: TREM-1 receptor; assay: Inhibition of cytotoxic activity of PBMC induced by peptide N3; assay type: cell-based, human; details: PBMC preincubated 1 h with peptide (10^−9 M), then N3 added; cytotoxicity after 6 days, K562
Method: The inhibitory and activating activities were investigated. To determine the inhibitory activity, PBMC were preincubated with the studied peptides for 1 h, then the activating peptide N3 was added, and the cytotoxic activity of lymphocytes was determined after 6 days.
as §2

[5] = test system: K562 cells; assay: Cytotoxic activity of human PBMC incubated 6 days with Tag7 peptides (single or combined), tested on K562 cells; assay type: cell-based; details: single peptide, 10^−9 M, human PBMC 6 days, then K562; n = 5
Method: The synthesized peptides were incubated with isolated human PBMC for 6 days. Thereafter, the activated lymphocytes were added to MHC-negative tumor cells of the K562 line, and their cytotoxic effect on these cells was determined.
as §1
K562, RAW264.7 cells were cultivated in RPMI-1640 (Himedia Laboratories Private Limited, Maharashtra, India) with 2 mM L glutamine, 10% FCS (Invitrogen, Carlsbad, CA, USA), with 1% kanamycin (Thermo Fisher Scientific, Waltham, MA, USA). […] CD4+ (CD8+) T-lymphocytes were isolated from the PBMCs using the Dynabeads^TM Untouched^TM Human CD4 T Cells Kit, and NK cells were isolated from PBMC by Dynabeads^TM Untouched^TM Human NK Cells Kit according to the manufacturer’s protocol (Thermo Fisher Scientific, Waltham, MA, USA).
as §2

HMGB1: multifunctional protein, TREM-1 ligand
type of tumor cell death induced [1]: induced apoptosis and necroptosis in tumor cells
stimulation of cytokines and activation of cytotoxic lymphocytes [2]: not only stimulate the production of pro-inflammatory cytokines but also induce the activation of cytotoxic lymphocytes against MHC-negative tumor cells

Hsp70: main heat shock protein, TREM-1 ligand
type of tumor cell death induced [1]: induced apoptosis and necroptosis in tumor cells
stimulation of cytokines and activation of cytotoxic lymphocytes [2]: not only stimulate the production of pro-inflammatory cytokines but also induce the activation of cytotoxic lymphocytes against MHC-negative tumor cells

LQVTDSGLYRCVIYHPP [LP17, reference compound]
inhibition of cytotoxicity of the sum of N9 and N15 [3]: inhibited

PASCQQQAR [N9]
inhibition of N3-stimulated cytotoxic activity [4]: inhibited the development of cytotoxic activity stimulated by peptide N3
activation of cytotoxic lymphocytes [5]: do not activate cytotoxic lymphocytes

RNVQHYHMKT [17.0]
inhibition of N3-stimulated cytotoxic activity [4]: inhibited the development of cytotoxic activity stimulated by peptide N3
inhibition of cytotoxicity of the sum of N9 and N15 [3]: inhibited
activation of cytotoxic lymphocytes [5]: do not activate cytotoxic lymphocytes

RYVVVSHTAGSSCNT [N15]
inhibition of N3-stimulated cytotoxic activity [4]: had no inhibitory effect on the induction of the TREM-1-dependent signal
activation of cytotoxic lymphocytes [5]: do not activate cytotoxic lymphocytes

Tag7: innate immunity protein PGLYRP1; recombinant Tag7
type of tumor cell death induced [1]: induced apoptosis and necroptosis in tumor cells
stimulation of cytokines and activation of cytotoxic lymphocytes [2]: not only stimulate the production of pro-inflammatory cytokines but also induce the activation of cytotoxic lymphocytes against MHC-negative tumor cells

— paper PMC12071940, “Shortened PGLYRP1 Peptides Regulate Antitumor Activity of Cytotoxic Lymphocytes via TREM-1 Receptor: From Biology to Bioinformatics” (International Journal of Molecular Sciences, 2025)
